# Experimental data taken from ChEMBL document CHEMBL1150852, “Coumarins isolated from Angelica gigas inhibit acetylcholinesterase: structure-activity relationships” (J Nat Prod, 2001).
# Target: Acetylcholinesterase (Homo sapiens, UniProt P22303)
# Test: Inhibition of AChE by spectrophotometry
# Sequence of Acetylcholinesterase (P22303 whole entry): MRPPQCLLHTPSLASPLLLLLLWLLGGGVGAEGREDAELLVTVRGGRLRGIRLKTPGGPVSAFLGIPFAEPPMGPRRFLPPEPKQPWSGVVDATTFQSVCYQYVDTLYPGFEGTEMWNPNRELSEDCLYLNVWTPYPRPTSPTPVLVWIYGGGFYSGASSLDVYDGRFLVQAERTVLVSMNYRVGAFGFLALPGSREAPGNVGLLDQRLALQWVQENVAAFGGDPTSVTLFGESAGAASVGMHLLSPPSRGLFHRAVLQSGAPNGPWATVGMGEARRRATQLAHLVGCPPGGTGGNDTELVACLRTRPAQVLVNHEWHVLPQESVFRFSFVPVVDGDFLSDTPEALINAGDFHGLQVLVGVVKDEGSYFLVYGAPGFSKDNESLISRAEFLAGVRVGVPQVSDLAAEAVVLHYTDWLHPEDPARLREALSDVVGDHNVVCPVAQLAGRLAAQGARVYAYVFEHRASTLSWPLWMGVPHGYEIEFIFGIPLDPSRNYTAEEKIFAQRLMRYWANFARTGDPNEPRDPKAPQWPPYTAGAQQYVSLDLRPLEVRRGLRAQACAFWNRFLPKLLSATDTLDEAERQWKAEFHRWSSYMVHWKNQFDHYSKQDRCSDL
row,Compound,IC50 [µM]
1,CC(C)(O)[C@@H]1Cc2cc3ccc(=O)oc3cc2O1 [MARMESIN],67
2,CC1(C)C=Cc2cc3ccc(=O)oc3cc2O1 [XANTHYLETIN],150
3,CC(C)=CCc1cc2ccc(=O)oc2cc1O [DEMETHYLSUBEROSIN],2400
4,CC(C)=CC(=O)O[C@H]1Cc2cc3ccc(=O)oc3cc2OC1(C)C [DECURSIN],390
5,CC(C)(O)C(=O)Cc1cc2ccc(=O)oc2cc1O [PEUCEDANONE],180
6,COc1cc(OCC=C(C)C)c2ccc(=O)oc2c1,240
7,COc1c2occc2cc2ccc(=O)oc12 [METHOXSALEN],54
8,CC(C)=CCOc1c2ccoc2cc2oc(=O)ccc12 [ISOIMPERATORIN],69
9,CC(C)(O[C@@H]1O[C@H](CO)[C@@H](O)[C@H](O)[C@H]1O)[C@H]1Cc2cc3ccc(=O)oc3cc2O1 [NODAKENIN],68
10,C=C(C)[C@H](O)Cc1cc2ccc(=O)oc2cc1O,130
